Columns and labels:
[1] = tested on: HEK/MRP7 cells; assay: [^3H]-paclitaxel accumulation (Example 4); assay type: cell-based; conditions: 5 μM, 2 h
Experimental: (§1) The effect of PDE5 inhibitors on the intracellular accumulation of paclitaxel in HEK293-pcDNA3.1 and HEK/MRP7 cells was measured using [^3H]-paclitaxel. […] For efflux studies, the cells were treated the same as in the drug accumulation study, and then washed three times with ice-cold PBS, and suspended in fresh medium with or without PDE5 inhibitors. Aliquots were evenly collected at various time points (0, 30, 60, and 120 min). Samples from both accumulation and efflux experiments were washed with ice-cold PBS three times and placed in scintillation fluid, and the radioactivity was measured in a Packard TRI-CARB® 1900CA liquid scintillation analyzer from Packard Instrument Company, Inc. (Downers Grove, Ill.).

[2] = tested on: HEK/MRP7; assay: MTT cytotoxicity assay (Example 4); assay type: cell-based
Method in brief: (§2)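 MTT viability assay in HEK293 cells carrying empty pcDNA3.1 or MRP7-transfected (G418-selected), seeded at 6000 cells/well in triplicate. Drug exposure 68 h. IC50 from survival curves by Bliss method.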

[3] = tested on: HEK 293-pcDNA-3.1; assay: MTT cytotoxicity assay (Example 4); assay type: cell-based; conditions: HEK 293-pcDNA-3.1
Method in brief: as §2

[4] = tested on: HEK293/pcDNA3.1; assay: MTT cytotoxicity/reversal assay (Example 1); assay type: cell-based
Method in brief: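 KB-3-1, ABCB1-overexpressing KB-C2, and HEK293 transfected with empty pcDNA3.1 or ABCG2 (R482) vector. MTT read at 570 nm after 68 h drug exposure plus 4 h MTT at 37 °C. IC50 from survival curves by Bliss method; fold-reversal = IC50 without reversal agent divided by IC50 with it.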

[5] = tested on: HEK/MRP7 cells; assay: [^3H]-paclitaxel efflux (Example 4); assay type: cell-based; conditions: 5 μM PDE5 inhibitor
Experimental: as §1

[6] = tested on: KB-C2 cells (ABCB1); assay: [^3H]-paclitaxel accumulation (Example 1); assay type: cell-based, human; conditions: 10 μM
Experimental: The intracellular accumulation of [^3H]-paclitaxel was measured as follows. […] Intracellular paclitaxel accumulation was measured by incubating cells with 0.1 μM [^3H]-paclitaxel for 2 h in the presence or absence of the reversal agents at 37° C. The cells were washed three times with ice-cold PBS, then suspended in fresh medium with or without reversal agents at 37° C. Aliquots of the extracellular medium (40 μl) were collected at various time points (0, 60, 120 min), and finally the cells were collected and lysed in 10 mM lysis buffer (pH 7.4, containing 1% Triton X-100 and 0.2% SDS). Each sample was placed in scintillation fluid and the radioactivity was measured in a Packard TRI-CARB1 1900CA liquid scintillation analyzer from Packard Instrument Company, Inc. (Downers Grove, Ill.).

[7] = tested on: HEK/ABCB1 (ABCB1); assay: MTT cytotoxicity/reversal assay (Example 1); conditions: HEK/ABCB1
Experimental: The KB-C2 and KB-3-1 were kindly provided by Dr. Akiyama (Kagoshima University, Japan). […] Similarly, the HEK/MRP1 (ABCC1) and HEK/ABCB1 cells were generated by transfecting the HEK293 cells with either the MRP1 expression vector or the ABCB1 expression vector. All of the cell lines were grown in Dulbecco's modified Eagle's medium (DMEM) supplemented with 10% bovine serum, 100 units/ml penicillin, and […] streptomycin in a humidified incubator containing 5% CO2 at 37° C.
(§3) The MTT assay was used to assess cytotoxicity. The cultured cells were harvested with trypsin and resuspended in a final concentration of 4×10^3 cells/well for KB-3-1; 7.5×10^3 cells/well for KB-C2; and 8×10^3 for all of the other cell lines used in this study. Cells were seeded evenly in 96-well multiplates. […] After 68 h of incubation, 20 μl of the MTT solution (4 mg/ml) was added to each well, and the plate was further incubated for 4 h at 37° C., allowing viable cells to convert the yellow-colored MTT into dark-blue formazan crystals. Subsequently, the medium was discarded, and 100 μl of DMSO was added into each well to dissolve the formazan crystals, generating purple color. The absorbance was determined at 570 nm by an OPSYS Microplate Reader from DYNEX Technologies, Inc. (Chantilly, Va.). […] The degree of the reversal of multidrug resistance (MDR) was calculated by dividing the IC50 of an anticancer drug, e.g., an antineoplastic or chemotherapeutic drug (agent, compound), in a cell type in the absence of a reversal agent by the IC50 of the anticancer drug in the same cell type in the presence of the reversal agent. The IC50 values were calculated from survival curves using the Bliss method.

[8] = tested on: KB-C2 (ABCB1); assay: MTT cytotoxicity/reversal assay (Example 1); assay type: cell-based, human
Experimental: (§4) The KB-C2 and KB-3-1 were kindly provided by Dr. Akiyama (Kagoshima University, Japan). HEK293-pcDNA3.1 and wild-type HEK/ABCG2 transfected cells were established by selection with G418 after transfecting HEK293 with either (1) empty pcDNA3.1 vector or (2) pcDNA3.1 vector containing full length of ABCG2 coding arginine (R) at amino acid position 482, and were then cultured in a medium with 2 mg/ml of G418 (ABCG2-482-R2 cells). Similarly, the HEK/MRP1 (ABCC1) and HEK/ABCB1 cells were generated by transfecting the HEK293 cells with either the MRP1 expression vector or the ABCB1 expression vector. All of the cell lines were grown in Dulbecco's modified Eagle's medium (DMEM) supplemented with 10% bovine serum, 100 units/ml penicillin, and […] streptomycin in a humidified incubator containing 5% CO2 at 37° C.
as §3

[9] = tested on: KB-3-1; assay: MTT cytotoxicity/reversal assay (Example 1); assay type: cell-based, human
Experimental: as §4, §3

[10] = HEK293/pcDNA3.1, +5 μM reversal agent
[11] = HEK293/pcDNA3.1, +10 μM reversal agent

## CCCc1nc(C)c2c(=O)[nH]c(-c3cc(S(=O)(=O)N4CCN(CC)CC4)ccc3OCC)nn12 [Vardenafil, vardenafil]
[1]
  increase of intracellular accumulation of [^3H]-paclitaxel: 3.7 fold
[2]; +1.25 μM reversal agent
  fold-resistance, docetaxel: (5.56)
  fold-resistance, paclitaxel: (2.99)
  fold-resistance, vinblastine: (3.01)
[2]; +5 μM reversal agent
  fold-resistance, cisplatin: (1.09)
  fold-resistance, docetaxel: (1.19)
  fold-resistance, paclitaxel: (1.06)
  fold-resistance, vinblastine: (1.11)
[3]; +1.25 μM reversal agent
  fold-resistance, docetaxel: (1.0)
  fold-resistance, paclitaxel: (0.93)
  fold-resistance, vinblastine: (0.96)
[3]; +5 μM reversal agent
  fold-resistance, cisplatin: (1.07)
  fold-resistance, docetaxel: (0.80)
  fold-resistance, paclitaxel: (0.79)
  fold-resistance, vinblastine: (0.85)
[4]; HEK293/pcDNA3.1 (Table 6), +10 μM reversal agent
  fold reversal, vincristine: (0.92)
[4]; [10]
  fold reversal, cisplatin: (1.06)
  fold reversal, paclitaxel: (1.09)
  fold reversal, vincristine: (0.88)
[4]; [11]
  fold reversal, SN-38: (1.10)
  fold reversal, cisplatin: (1.00)
  fold reversal, paclitaxel: (1.18)
  fold reversal, vincristine: (1.19)
[5]; 30 min
  percentage of intracellular [^3H]-paclitaxel: 95.34%
[5]; 60 min
  percentage of intracellular [^3H]-paclitaxel: 93.58%
[5]; 120 min
  percentage of intracellular [^3H]-paclitaxel: 63.92%
[6]
  increase of intracellular accumulation of paclitaxel: 1.6 fold
[7]; +5 μM reversal agent
  fold reversal, cisplatin: (0.95)
  fold reversal, paclitaxel: (3.86)
  fold reversal, vincristine: (4.10)
[7]; +10 μM reversal agent
  fold reversal, cisplatin: (1.09)
  fold reversal, paclitaxel: (8.69)
  fold reversal, vincristine: (11.60)
[8]; +5 μM reversal agent
  fold reversal, cisplatin: (0.87)
  fold reversal, colchicine: (27.6)
  fold reversal, paclitaxel: (26.2)
[8]; +10 μM reversal agent
  fold reversal, cisplatin: (0.96)
  fold reversal, colchicine: (184.8)
  fold reversal, paclitaxel: (54.1)
[9]; +5 μM reversal agent
  fold reversal, cisplatin: (0.89)
  fold reversal, colchicine: (0.90)
  fold reversal, paclitaxel: (0.89)
[9]; +10 μM reversal agent
  fold reversal, cisplatin: (0.93)
  fold reversal, colchicine: (0.93)
  fold reversal, paclitaxel: (0.92)
